{
  "source": "patent US20110182877A1",
  "about": "“SUSTAINED DELIVERY OF COMPSTATIN ANALOGS FROM GELS” (POTENTIA PHARMACEUTICALS, INC., priority 2007, published 2011)",
  "key": {"[1]": {"test_system": "complement activation", "conditions": "relative to compstatin amidated at the C-terminus; based on published data; cited from earlier work"}, "[2]": {"test": "Intravitreal administration to non-human primates: deposit formation and compound content (Example 1)", "assay_type": "in vivo", "conditions": "Cynomolgus monkey, IVT 150 μg/eye, from 4 hours to 2 weeks post administration", "procedure": "Two different formulations were manufactured by dissolving the compound into water for injection at different concentrations: (i) 0.299 mg/mL, designated LD and (ii) 4.51 mg/mL, designated as HD and filter sterilizing through a Millipore Durapore 47 mm 0.22 μm filter. The liquid compositions were dispensed into individual vials (250 μl each). The pH of the LD composition was 5.48 while that of the HD composition was 6.0.\nDuring studies involving intravitreal administration of the compstatin analog whose synthesis was described above (SEQ ID NO: 32) in water for injection to non-human primates it was observed that the compound has the ability to form gel-like, approximately spheroidal intravitreal deposits in the primate (Cynomolgus monkey) eye following intravitreal injection. […]\n(§1) At necropsy, in the majority of male animals (10 of 12) that had been dosed with compound IVT at 150 μg/eye, gel-like spheroidal intravitreal deposits were observed upon dissection of the eye. These deposits were isolated and analyzed for the presence of the compound.\nThe deposits were analyzed for drug content, and drug content was observed and measured using HPLC."}, "[3]": {"test": "Further studies of deposits, serum and vitreous concentration after intravitreal injection (Example 3)", "assay_type": "in vivo, Cynomolgus monkeys", "procedure": "In one study, Cynomolgus monkeys were administered 0, 150, 450, 1050, or 2100 μg of compound in 50 μl WFI by intravitreal injection.\nSome of the animals that had been administered 0, 450, 1050, or 2100 μg were sacrificed, and compound concentration in serum and vitreous was measured 14 days following administration. Compound measurement was performed using HPLC. […] When administered at concentrations too low to form a deposit, the compound is cleared from the Cynomolgus vitreous with a T1/2 of about 22 hours. Therefore, it is evident that the compound measured in this experiment after 2 weeks must reflect release from the deposit rather than residual compound that was never present in the deposit.\nThe study was continued to evaluate behavior of the deposits over time. […] There was evidence that they were diminishing in size and/or density at the 6 month time point. […] The deposits could be observed both by ophthalmoscopic examination and ultrasound. They appeared to continue diminishing in size and/or split into multiple smaller deposits over time.\nThe deposits were undetectable using these techniques by approximately 1 week following dosing."}, "[4]": {"test": "Histopathological analysis of eyes after intravitreal injection", "assay_type": "in vivo, New Zealand White rabbits", "procedure": "Histopathological Analysis: After examination, animals were euthanized and eyes were enucleated, fixed in Davidson's solution, sectioned and H/E stained. Sections from both eyes of animals receiving 25, 50, or 100 μg/eye of compound (Table 2, last three animals) were examined by an American Board of Pathology-certified pathologist, and peer-reviewed by a board-certified and recognized expert veterinary pathologist.\nFive animals in this study were also processed for histopathological evaluation. The eyes were evaluated by two pathologists. […] The cornea, iris, ciliary body, lens, sclera, retina, and vitreous were all normal."}, "[5]": {"test": "Indirect ophthalmoscope exam in dose-ranging study for vitreous deposits formation", "assay_type": "in vivo, New Zealand White rabbits", "design": "key to Indirect Exam Vit.: 0: Clear, no deposits, bubbles, or haziness detectable; 1: Light haziness, no opaque deposits or vitreous opacity; 2: Moderate opacity or opaque bubble or deposit; 3: Pronounced vitreal opacity; 4: Opaque; key to Indirect Exam Retina: 0: Flat, no mars, blisters or blemishes; 1: Not flat; has wrinkles, bumps, or ripples; 2: Minor inflammation or bleeding; 3: Retinal detachment, moderate hemorrhage; 4: Destruction of retinal tissue (GA, CNV, retinal tear)", "conditions": "NZW rabbit; for Indirect Exam Retina / Indirect Exam Vit.: 27 hours after treatment", "procedure": "The study examined the ability of compound in amounts ranging from 0 to 200 μg/eye (0, 25, 50, 75, 100, 125, 150,175, 200 μg) to form deposits in the eye following intravitreal injection (Table 2). Each concentration was injected into three eyes. Thirteen animals were used for dose-ranging. Five additional animals were used for histological analysis.\nInjection Procedures: Intravitreal injections were administered using a 0.5 cc tuberculin syringe (with permanently attached 29 G ½ inch needle); 0.2 ml of compound solution was withdrawn from the vial. Excess liquid was expelled, so that the syringe contained only the necessary volume of liquid for a single injection (50 μl). The eye was kept open using an eye lid speculum. The needle was inserted in the supero-temporal quadrant, through an area 3.5-4.0 mm posterior to the limbus, avoiding the horizontal meridian and aiming toward the center of the eye. Only half (¼ inch) of the needle total length (½ inch) was inserted into the eye. The injection volume was delivered slowly to prevent a rapid increase in intraocular pressure. To ensure that all the solution is in the eye and to avoid push-back through the injection site, the needle was removed slowly.\nOphthalmic Examinations: All animals received an ophthalmic exam (indirect ophthalmoscope) by a practicing clinical ophthalmologist prior to sacrifice."}, "[6]": {"test": "Ocular safety examinations after intravitreal injection (Example 1)", "assay_type": "in vivo", "conditions": "Cynomolgus monkey", "procedure": "During studies involving intravitreal administration of the compstatin analog whose synthesis was described above (SEQ ID NO: 32) in water for injection to non-human primates it was observed that the compound has the ability to form gel-like, approximately spheroidal intravitreal deposits in the primate (Cynomolgus monkey) eye following intravitreal injection. […] The high dose consisted of the intravitreal (IVT) injection of an estimated dose of 150 μg of compound in a volume of 50 μL water for injection while the low dose consisted of an estimated dose of 3 μg of compound in a volume of 50 μL water for injection.\nas §1"}},
  "note": "“And” between values parts separate entries of the source, which are not always exact repeats. Equal entries are not always repeated. Bridge positions count the residues as written; N and C are the ends. Square brackets hold non-standard residues; d marks the D form. Trp(5-F) = N[C@@H](Cc1c[nH]c2ccc(F)cc12)C(=O)O",
  "data": [
    {"molecule": "Ac-ICV(5fW)QD(5fW)GAHRCT-CONH2 (Ac-ICV[Trp(5-F)]QD[Trp(5-F)]GAHRCT-NH2; disulfide 2-12) [Ac-V4(5fW)/W7(5fW)/H9A]", "values": [
      {"measurement": "Activity over compstatin", "setting": "[1]", "value": 161, "unit": "× more"}
    ]},
    {"molecule": "CC[C@H](C)[C@H](NC(C)=O)C(=O)N[C@H]1CSSC[C@@H](C(=O)N[C@H](C(N)=O)[C@@H](C)O)NC(=O)[C@H](CCCNC(=N)N)NC(=O)[C@H](Cc2cnc[nH]2)NC(=O)[C@H](C)NC(=O)CNC(=O)[C@H](Cc2c[nH]c3ccccc23)NC(=O)[C@H](CC(=O)O)NC(=O)[C@H](CCC(N)=O)NC(=O)[C@H](Cc2cn(C)c3ccccc23)NC(=O)[C@H](C(C)C)NC1=O", "note": "[Ac-V4(1-MeW)/H9A, Ac-ICV(1-methyl-W)QDWGAHRCT-CONH2]", "values": [
      {"measurement": "Compound in the vitreous", "setting": "[2]", "value": "presence of the compound at all time points examined"},
      {"measurement": "Continued release based on serum samples", "setting": "[3]; Cynomolgus monkey, IVT 450, 1050, 2100 μg, up to 1 year", "value": "continued release of compstatin analog occurred during this time"},
      {"measurement": "Serum concentration relative to vitreal concentration at the same dose", "setting": "[3]; Cynomolgus monkeys, 14 days following IVT 450, 1050 or 2100 μg", "value": "approximately 100 fold lower"},
      {"measurement": "Duration of release from intravitreal deposits", "setting": "[3]; Cynomolgus monkeys, IVT 450, 1050 or 2100 μg, serum and vitreous HPLC at 14 days", "value": "at least two weeks"},
      {"measurement": "half-life", "setting": "[3]; cynomolgus monkey, other: intravitreal injection, Cynomolgus vitreous, concentrations too low to form a deposit, read-out: T1/2 of clearance from the vitreous (converted)", "value": "~22", "unit": "h"},
      {"measurement": "Adverse effects attributable to the deposits", "setting": "[3]; monkey studies, histopathology and physical examination", "value": "No adverse effects attributable to the deposits were observed"},
      {"measurement": "Histopathological evaluation of eyes", "setting": "[4]; NZW rabbit, single-dose IVT 25, 50 and 100 μg/eye, two pathologists", "value": "all the evaluated eyes were normal"},
      {"measurement": "Adverse effects attributable to the deposits", "setting": "[4]; rabbit studies, histopathology and physical examination", "value": "No adverse effects attributable to the deposits were observed"},
      {"measurement": "Indirect Exam Retina", "setting": "[5]; 25 μg/eye IVT in 50 μl", "value": 0},
      {"measurement": "Indirect Exam Vit.", "setting": "[5]; 25 μg/eye IVT in 50 μl", "value": 1},
      {"measurement": "Indirect Exam Retina", "setting": "[5]; 50 μg/eye IVT in 50 μl", "value": 0},
      {"measurement": "Indirect Exam Vit.", "setting": "[5]; 50 μg/eye IVT in 50 μl", "value": "2 and 1"},
      {"measurement": "Indirect Exam Retina", "setting": "[5]; 75 μg/eye IVT in 50 μl", "value": 0},
      {"measurement": "Indirect Exam Vit.", "setting": "[5]; 75 μg/eye IVT in 50 μl", "value": "1 and 2"},
      {"measurement": "Indirect Exam Retina", "setting": "[5]; 100 μg/eye IVT in 50 μl", "value": 0},
      {"measurement": "Indirect Exam Vit.", "setting": "[5]; 100 μg/eye IVT in 50 μl", "value": "2 and 3"},
      {"measurement": "Indirect Exam Retina", "setting": "[5]; 125 μg/eye IVT in 50 μl", "value": 0},
      {"measurement": "Indirect Exam Vit.", "setting": "[5]; 125 μg/eye IVT in 50 μl", "value": 1},
      {"measurement": "Indirect Exam Retina", "setting": "[5]; 150 μg/eye IVT in 50 μl", "value": 0},
      {"measurement": "Indirect Exam Vit.", "setting": "[5]; 150 μg/eye IVT in 50 μl", "value": "2 and 1"},
      {"measurement": "Indirect Exam Retina", "setting": "[5]; 175 μg/eye IVT in 50 μl", "value": "2 and 0"},
      {"measurement": "Indirect Exam Vit.", "setting": "[5]; 175 μg/eye IVT in 50 μl", "value": "2 and 1 and 4"},
      {"measurement": "Indirect Exam Retina", "setting": "[5]; 200 μg/eye IVT in 50 μl", "value": 0},
      {"measurement": "Indirect Exam Vit.", "setting": "[5]; 200 μg/eye IVT in 50 μl", "value": 1},
      {"measurement": "Pathological changes on indirect ophthalmoscopic exam", "setting": "[5]; IVT 25-200 μg/eye", "value": "did not reveal any pathological changes"},
      {"measurement": "Eyes with vitreous haze", "setting": "[5]; IVT, did not correlate strongly with dose", "value": "9 of the 32"},
      {"measurement": "Adverse reactions caused by compound within the vitreous cavity", "setting": "[6]; IVT 3 or 150 μg/eye", "value": "no evidence that the compound within the vitreous cavity caused any apparent adverse reactions"},
      {"measurement": "ERG values", "setting": "[6]; IVT 3 or 150 μg/eye", "value": "within normal limits"},
      {"measurement": "Tonometry, intraocular pressure", "setting": "[6]; IVT 3 or 150 μg/eye", "value": "no drug-related changes in intraocular pressure"},
      {"measurement": "Vitreal haze, binocular indirect ophthalmoscopy", "setting": "[6]; day 2, IVT 3 μg/eye", "value": "diffuse vitreal haze in the right eye of one animal"},
      {"measurement": "Vitreal haze, binocular indirect ophthalmoscopy", "setting": "[6]; day 2, IVT 150 μg/eye", "value": "four animals"},
      {"measurement": "Slit lamp examinations of the anterior segment of the eye", "setting": "[6]; days 2 and 15 following IVT administration", "value": "no abnormalities"},
      {"measurement": "Histopathology of the eyes", "setting": "[6]; with or without intravitreal deposits", "value": "no drug-related abnormalities were observed"}
    ]}
  ]
}
